# Experiments:
# [1] = tested on: eye of a rabbit; test: Intra-ocular pressure in rabbits after subconjunctival injection; format: in vivo
# Protocol: Male albino New Zealand rabbits weighing≧2 Kg were used for in vivo experiments performed under various active animal use protocols approved by the Institutional Animal Care and Use Committee at UC Davis. Animals were sedated with an intravenous dose of Napentabarbitol, 1-2 mg/Kg to permit their handling and frequent measurement of intra-ocular pressure (IOP). Topical anesthesia consisting of Proparacaine HCl (Alcaine™) was used for IOP measurements. A pneumatonometer (Mentor O & O Classic Model 30 Penumatonometer™, Norwell, Mass.) calibrated to a known (25 mmHg) pressure prior to each experiment was used for all IOP measurements. This model of Pneumatonometer provides a readout of standard deviation of each measurement; only measurements with a standard deviation of≦1 mmHg were accepted and most were less than 0.5 mmHg. Following sedation, IOP measurements were carried out over at least 30 minutes to assure that a stable baseline IOP was present.
# Drugs and/or vehicle was administered to one eye of each animal via subconjunctival injection in order to bypass any barriers to drug penetration, such as an intact corneal and conjunctival epithelium and to achieve rapid and high concentrations of drug, bypassing epithelial barriers. The contralateral eye treated only with vehicle served as a control for each animal. Two syringes were prepared for each experiment, one containing drug and vehicle, the other containing only vehicle. […] Injections raised a prominent bleb, confirming subconjunctival placement of the drug or vehicle. This bleb then smoothed out over about ten minutes, indicating diffusion of the drug or vehicle throughout the subconjunctival space.
# Measurements of intra-ocular pressure were taken at various intervals following the subconjunctival administration of the drug and/or vehicle. IOP in both eyes fluctuated over time reflecting the level of anesthesia. During the course of the experiment, the animal handlers and investigators were masked as to which eve had received the drug or control injection.
# [2] = target: T1, Na—K—Cl cotransport (Bos taurus, UniProt F1MS08); test: K influx (86Rb) in bovine TM cell monolayers; format: cell-based; conditions: bovine TM cells
# T1 sequence (F1MS08 1-1204): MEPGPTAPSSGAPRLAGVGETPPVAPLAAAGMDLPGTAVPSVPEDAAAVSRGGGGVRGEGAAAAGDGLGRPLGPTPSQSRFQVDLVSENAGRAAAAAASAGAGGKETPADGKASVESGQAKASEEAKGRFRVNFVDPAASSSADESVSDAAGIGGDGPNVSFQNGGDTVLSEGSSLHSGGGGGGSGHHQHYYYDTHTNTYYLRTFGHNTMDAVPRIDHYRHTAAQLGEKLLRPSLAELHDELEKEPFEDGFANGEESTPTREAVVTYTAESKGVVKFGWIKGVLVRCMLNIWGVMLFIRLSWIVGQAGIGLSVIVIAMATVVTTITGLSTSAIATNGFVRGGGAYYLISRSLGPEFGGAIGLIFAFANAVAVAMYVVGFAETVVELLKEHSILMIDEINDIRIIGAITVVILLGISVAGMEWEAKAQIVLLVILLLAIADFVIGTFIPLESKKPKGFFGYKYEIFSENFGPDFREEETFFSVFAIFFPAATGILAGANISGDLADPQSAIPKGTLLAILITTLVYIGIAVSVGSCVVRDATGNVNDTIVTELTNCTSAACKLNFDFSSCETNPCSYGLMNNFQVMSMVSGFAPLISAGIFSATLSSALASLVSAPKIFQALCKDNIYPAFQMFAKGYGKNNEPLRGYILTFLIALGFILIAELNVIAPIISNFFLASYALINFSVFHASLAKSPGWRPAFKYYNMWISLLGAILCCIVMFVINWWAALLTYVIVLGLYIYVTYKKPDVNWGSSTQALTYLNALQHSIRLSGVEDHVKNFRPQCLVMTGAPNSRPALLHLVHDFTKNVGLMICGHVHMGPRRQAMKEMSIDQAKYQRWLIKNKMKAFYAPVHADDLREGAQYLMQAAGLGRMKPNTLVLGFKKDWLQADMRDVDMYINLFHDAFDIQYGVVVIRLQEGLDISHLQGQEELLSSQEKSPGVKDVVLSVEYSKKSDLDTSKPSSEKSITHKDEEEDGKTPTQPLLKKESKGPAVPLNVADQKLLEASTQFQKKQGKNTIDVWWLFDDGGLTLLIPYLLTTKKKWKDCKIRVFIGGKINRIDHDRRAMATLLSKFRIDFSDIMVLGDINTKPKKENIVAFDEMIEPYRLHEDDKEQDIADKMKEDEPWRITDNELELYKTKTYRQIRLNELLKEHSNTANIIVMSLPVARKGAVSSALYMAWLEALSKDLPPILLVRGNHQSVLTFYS
# Protocol: (§1) Details of this method have been published previously (O'Donnell, M. E., supra, 1989). Briefly, bovine or human TM cell monolayers on 24 well plates were equilibrated for 10 minutes at 37° C. in a Hepes-buffered minimal essential medium (MEM) containing (in mM): 144 Na, 147 Cl, 5.8 K, 1.2 Ca, 4.2 HCO3, 0.4 H2PO4, […], 0.4 SO4, 5.6 glucose and 20 Hepes. […] The assay medium also contained ^86Rb (1 μCi/ml) (Dupont New England Nuclear, Boston, Mass.). The assay was terminated by rinsing the wells with ice-cold isotonic MgCl2, then extracting the contents with 0.2% sodium dodecyl sulfate (SDS), and determining the amount of radioactive contents by liquid scintillation. Osmolarities of all preincubation and assay media were verified by osmometry (Model 3W2, Advanced Instruments, Norwood, Mass.).
# The effects of hormones, neurotransmitters and second messengers on Bumetanide-sensitive K influx of bovine trabecular meshwork cells were assessed using the procedures of Example 1. […] The control is the Hepes-buffered medium containing Na, K, Cl, CA and other ions as described in Example 1B. […] The data represent the mean values±SEM of quadruplicate determinations from two experiments.
# [3] = target: T2, Na—K—Cl cotransport (Homo sapiens, UniProt P55011); test: K influx (86Rb) in human TM cell monolayers; format: cell-based; conditions: human TM cells, 1 mM ethacrynic acid
# T2 construct: bovine or human TM cell monolayers on 24 well plates; endogenous in cells; host or cells: primary cultured human trabecular meshwork cells
# T2 sequence (P55011 1-1212): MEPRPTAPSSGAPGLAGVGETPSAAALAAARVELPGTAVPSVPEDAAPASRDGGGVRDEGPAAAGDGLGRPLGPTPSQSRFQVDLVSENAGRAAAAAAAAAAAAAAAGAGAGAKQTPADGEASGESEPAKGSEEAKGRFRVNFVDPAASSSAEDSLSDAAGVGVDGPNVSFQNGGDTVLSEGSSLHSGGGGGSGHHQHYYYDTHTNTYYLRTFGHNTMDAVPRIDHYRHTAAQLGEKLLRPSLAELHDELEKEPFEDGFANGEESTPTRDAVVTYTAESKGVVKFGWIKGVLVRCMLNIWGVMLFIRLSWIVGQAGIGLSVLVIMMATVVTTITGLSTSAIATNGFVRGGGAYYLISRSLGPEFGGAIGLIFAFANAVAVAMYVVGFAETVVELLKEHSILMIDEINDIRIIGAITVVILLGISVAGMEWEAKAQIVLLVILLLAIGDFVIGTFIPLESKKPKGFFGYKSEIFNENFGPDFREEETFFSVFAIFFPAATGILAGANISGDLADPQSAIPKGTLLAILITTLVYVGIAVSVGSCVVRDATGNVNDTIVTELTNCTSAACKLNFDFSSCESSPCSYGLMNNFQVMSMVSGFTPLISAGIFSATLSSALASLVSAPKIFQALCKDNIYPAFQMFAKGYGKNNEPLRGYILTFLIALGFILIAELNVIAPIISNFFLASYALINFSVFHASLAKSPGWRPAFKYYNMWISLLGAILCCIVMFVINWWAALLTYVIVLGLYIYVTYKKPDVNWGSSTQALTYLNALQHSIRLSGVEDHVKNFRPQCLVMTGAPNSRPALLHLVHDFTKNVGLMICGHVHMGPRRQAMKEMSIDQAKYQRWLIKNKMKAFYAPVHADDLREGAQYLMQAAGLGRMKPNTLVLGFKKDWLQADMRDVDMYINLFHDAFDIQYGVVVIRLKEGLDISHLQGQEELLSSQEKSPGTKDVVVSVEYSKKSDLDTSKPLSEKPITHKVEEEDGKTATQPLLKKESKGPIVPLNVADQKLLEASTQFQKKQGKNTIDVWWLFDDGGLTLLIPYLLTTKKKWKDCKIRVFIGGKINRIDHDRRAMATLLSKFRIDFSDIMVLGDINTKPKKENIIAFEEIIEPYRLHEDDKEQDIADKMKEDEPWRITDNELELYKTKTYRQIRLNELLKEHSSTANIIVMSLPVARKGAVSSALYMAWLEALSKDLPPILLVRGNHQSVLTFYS
# Protocol: as §1
# [4] = tested on: bovine TM cells; test: TM cell volume by electronic cell sizing (Coulter Counter); format: cell-based; conditions: 30 minute exposure; bumetanide 10 μM, ethacrynic acid 1 mM; versus Hepes MEM control
# Protocol: By the second method, TM cells were trypsinized briefly in Ca-free medium, then rinsed with medium containing trypsin inhibitor and suspended in Hepes MEM. Mean cell volumes were then analyzed by electronic cell sizing on a Coulter Counter™ […] (Model ZM), with channelizer (C256), using at least 50,000 cells per data point and an orifice diameter of 140 μm. Aliquots of suspended cells were diluted into Hepes MEM containing the tonicity and/or agents to be evaluated. Mean cell volumes of each suspension aliquot were followed over time, starting at 1 minute after addition of cells to the assay media. Cell suspensions were maintained at 37° C. throughout the assay period. Absolute volumes (picoliters/cell) were calculated from distribution curves of cell diameter, using a standard curve generated by polystyrene latex beads of known diameter.
# In order to determine whether the Na—K—Cl cotransporter of TM cells may play a role in restoration of intracellular volume following hypertonicity-induced cell shrinkage, we evaluated the effect of hypertonicity on TM cell volume and Na^+—K^+—2Cl^− cotransport activity. […] The intracellular volume of the cells then increased over a slower time course, with volume recovering to approximately 84% by 33 minutes as shown in FIG. 3A.
# [5] = VP 100 nM, NE 10 μM, Ach 1 μM, cAMP 50 μM, cGMP 50 μM, A23187 1 μM, PMA 10 nM, Ca-free medium plus 5 μM BAPTA-AM, control 25.6 ± 0.71
compound,measurement,setting,value
NS(=O)(=O)c1cc(C(=O)O)c(NCc2ccco2)cc1Cl [furosemide],time after injection of significant drop in relative IOP,[1]; 0.1 cc of 100 μM furosemide subconjunctival,25 min
same,maximal inhibition (relative IOP),"[1]; 0.1 cc of 100 μM furosemide subconjunctival, experiment ended at 45 minutes",12.4%
"NC[C@H](O)c1ccc(O)c(O)c1 [NE, norepinephrine]",BUMETANIDE-SENSITIVE K INFLUX,[2]; [5],18.6 ± 1.79 μmol/g protein/min
Cc1cccc(Nc2ccncc2S(=O)(=O)NC(=O)NC(C)C)c1 [torasemide],IOP-lowering effect,[1]; 0.1 cc of 1 μM torasemide subconjunctival,time coarse and magnitude similar to that seen with bumetanide
same,average IOP lowering effect,"[1]; average of two experiments, FIG. 6",over 20%
NS(=O)(=O)c1cc(C(=O)O)cc(NCc2ccccc2)c1Oc1ccccc1 [benzmetanide],time after which significant reduction of IOP was observed,[1]; 0.1 cc of 7.5 μM benzmetanide subconjunctival,15 min
same,decrease in IOP,"[1]; 0.1 cc of 7.5 μM benzmetanide subconjunctival, after 50 minutes, relative to contralateral control eye",24%
"Nc1nc2c(nc(Br)n2[C@@H]2O[C@@H]3COP(=O)(O)O[C@H]3[C@H]2O)c(=O)[nH]1 [cGMP, 8-bromo-cyclic GMP]",BUMETANIDE-SENSITIVE K INFLUX,[2]; [5],19.7 ± 0.74 μmol/g protein/min
"CNc1ccc2oc(C[C@H]3O[C@@]4(CC[C@H]3C)O[C@H]([C@H](C)C(=O)c3ccc[nH]3)[C@H](C)C[C@H]4C)nc2c1C(=O)O [Compound A23187, A23187]",BUMETANIDE-SENSITIVE K INFLUX,[2]; [5],33.4 ± 5.33 μmol/g protein/min
"CC(=O)OCOC(=O)CN(CC(=O)OCOC(C)=O)c1ccccc1OCCOc1ccccc1N(CC(=O)OCOC(C)=O)CC(=O)OCOC(C)=O [Ca-free, 1,2-bis (o-aminophenoxy)ethane-N,N,N′,N-tetraacetic acid acetoxymethyl ester]",BUMETANIDE-SENSITIVE K INFLUX,[2]; [5],4.9 ± 1.06 μmol/g protein/min
C=C(CC)C(=O)c1ccc(OCC(=O)O)c(Cl)c1Cl [ethacrynic acid],BUMETANIDE-SENSITIVE K INFLUX,[3],abolished
same,BUMETANIDE-SENSITIVE K INFLUX,[2]; 1 mM ethacrynic acid,abolished
same,intracellular volume,[4],significant reduction
"CCCCCCCCCCCCCC(=O)O[C@@H]1[C@@H](C)[C@@]2(O)[C@@H](C=C(CO)C[C@]3(O)C(=O)C(C)=C[C@@H]23)[C@@H]2C(C)(C)[C@]12OC(C)=O [PMA, phorbol 12-myristate 13-acetate]",BUMETANIDE-SENSITIVE K INFLUX,[2]; [5],34.0 ± 1.33 μmol/g protein/min

# — patent US20020016346A1, “Method for enhancing outflow of aqueous humor in treatment of glaucoma” (The Regents University of California, a California …, priority 1994, published 2002)
